# Experimental data reported in US8772504B2, “Substituted benzoxazole, benzimidazole, oxazolopyridine and imidazopyridine derivatives as gamma secretase modulators” (Janssen Pharmaceuticals, Inc., priority 2009, dated 2014).
# Legend:
# Assay type in all cases: cell-based
# [1] = tested on: Aβtotal; experiment: Screening for γ-secretase-modulating activity, Method 2: Aβtotal Alphalisa on SKNBE2 cell supernatant; details: Method 2, Table 3c, SKNBE2 cells carrying APP 695 wild type, overnight incubation
# Experimental: (§1) Screening was carried out using SKNBE2 cells carrying the APP 695—wild type, grown in Dulbecco's Modified Eagle's Medium/Nutrient mixture F-12 (DMEM/NUT-mix F-12) (HAM) provided by Invitrogen (cat no. 10371-029) containing 5% Serum/Fe supplemented with 1% non-essential amino acids, 1-glutamine 2 mM, Hepes 15 mM, penicillin 50 U/ml (units/ml) en streptomycin 50 μg/ml. Cells were grown to near confluency.
# (§2) The screening was performed using a modification of the assay as described in Citron et al (1997) Nature Medicine 3: 67. Briefly, cells were plated in a 384-well plate at 10^4 cells/well in Ultraculture (Lonza, BE12-725F) supplemented with 1% glutamine (Invitrogen, 25030-024), 1% non-essential amino acid (NEAA), penicillin 50 U/ml en streptomycin 50 μg/ml in the presence of test compound at different test concentrations. The cell/compound mixture was incubated overnight at 37° C., 5% CO2. The next day the media were assayed by two sandwich immuno-assays, for Aβ42 and Aβtotal.
# (§3) Aβtotal and Aβ42 concentrations were quantified in the cell supernatant using the Aphalisa technology (Perkin Elmer). Alphalisa is a sandwich assay using biotinylated antibody attached to streptavidin coated donorbeads and antibody conjugated to acceptor beads. In the presence of antigen, the beads come into close proximity. The excitation of the donor beads provokes the release of singlet oxygen molecules that trigger a cascade of energy transfer in the acceptor beads, resulting in light emission. To quantify the amount of Aβ42 in the cell supernatant, monoclonal antibody specific to the C-terminus of Aβ42 (JRF/cAβ42/26) was coupled to the receptor beads and biotinylated antibody specific to the N-terminus of Aβ (JRF/AβN/25) was used to react with the donor beads. To quantify the amount of Aβtotal in the cell supernatant, monoclonal antibody specific to the N-terminus of Aβ (JRF/AβN/25) was coupled to the receptor beads and biotinylated antibody specific to the mid region of Aβ (biotinylated 4G8) was used to react with the donor beads.
# (§4) To obtain the values reported in Table 3c, the data were calculated as percentage of the maximum amount of amyloid Beta 42 measured in the absence of the test compound. The sigmoidal dose response curves were analyzed using non-linear regression analysis with percentage of the control plotted against the log concentration of the compound. A 4-parameter equation was used to determine the IC50.
# [2] = tested on: Aβ42; experiment: Screening for γ-secretase-modulating activity, Method 2: Aβ42 Alphalisa on SKNBE2 cell supernatant; details: Method 2, Table 3c, SKNBE2 cells carrying APP 695 wild type, overnight incubation
# Experimental: as §1, §2, §3, §4
# [3] = tested on: Aβ42; experiment: Screening for γ-secretase-modulating activity, Method 1: Aβ42 sandwich ELISA on SKNBE2 cell media; details: SKNBE2 cells carrying APP 695 wild type
# Experimental: as §1, with “Gibco” for “Invitrogen”, “31330-38)” for “10371-029)”, “acids.” for “acids, 1-glutamine 2 mM, Hepes 15 mM, penicillin 50 U/ml (units/ml) en streptomycin 50 μg/ml.”
# (§5) The screening was performed using the assay as described in Citron et al (1997) Nature Medicine 3: 67. Briefly, cells were plated in a 96-well plate at about 10^5 cells/ml one day prior to addition of compounds. Compounds were added to the cells in Ultraculture (Lonza, BE12-725F) supplemented with 1% glutamine (Invitrogen, 25030-024) for 18 hours. The media were assayed by two sandwich ELISAs, for Aβ42 and Aβtotal. Toxicity of the compounds was assayed by WST-1 cell proliferation reagent (Roche, 1 644 807) according to the manufacturer's protocol.
# To quantify the amount of Aβ42 in the cell supernatant, commercially available Enzyme-Linked-Immunosorbent-Assay (ELISA) kits were used (Innotest® β-Amyloid(1-42), Innogenetics N.V., Ghent, Belgium). The Aβ42 ELISA was performed essentially according to the manufacturer's protocol. Briefly, the standards (dilutions of synthetic Aβ1-42) were prepared in polypropylene Eppendorf with final concentrations of 8000 down to 3.9 pg/ml (1/2 dilution step). Samples, standards and blanks (100 μl) were added to the anti-Aβ42-coated plate supplied with the kit (the capture antibody selectively recognizes the C-terminal end of the antigen). The plate was allowed to incubate 3 h at 25° C. in order to allow formation of the antibody-amyloid complex. Following this incubation and subsequent wash steps a selective anti-Aβ-antibody conjugate (biotinylated 3D6) was added and incubated for a minimum of 1 hour in order to allow formation of the antibody-Amyloid-antibody-complex. After incubation and appropriate wash steps, a Streptavidine-Peroxidase-Conjugate was added, followed 30 minutes later by an addition of 3,3′,5,5′-tetramethylbenzidine (TMB)/peroxide mixture, resulting in the conversion of the substrate into a coloured product. This reaction was stopped by the addition of sulfuric acid (0.9 N) and the colour intensity was measured by means of photometry with an ELISA-reader with a 450 nm filter.
# (§6) To obtain the values reported in Table 3a, the sigmoidal dose response curves were analysed by computerised curve-fitting, with percent of inhibition plotted against compound concentration. A 4-parameter equation (model 205) in XLfit was used to determine the IC50. The top and the bottom of the curve were fixed to 100 and 0, respectively, and the hill slope was fixed to 1. The IC50 represents the concentration of a compound that is required for inhibiting a biological effect by 50% (Here, it is the concentration where Aβ peptide level is reduced by 50%).
# as §4, with “3b,” for “3c,”, “IC50. The values reported in Table 3b are averaged IC50 values.” for “IC50.”
# [4] = tested on: Aβtotal; experiment: Screening for γ-secretase-modulating activity, Method 1: Aβtotal sandwich ELISA on SKNBE2 cell media; details: SKNBE2 cells carrying APP 695 wild type
# Experimental: as §1, with “Gibco” for “Invitrogen”, “31330-38)” for “10371-029)”, “acids.” for “acids, 1-glutamine 2 mM, Hepes 15 mM, penicillin 50 U/ml (units/ml) en streptomycin 50 μg/ml.”
# as §5
# To quantify the amount of Aβtotal in the cell supernatant, samples and standards were added to a 6E10-coated plate. The plate was allowed to incubate overnight at 4° C. in order to allow formation of the antibody-amyloid complex. Following this incubation and subsequent wash steps a selective anti-Aβ-antibody conjugate (biotinylated 4G8) was added and incubated for a minimum of 1 hour in order to allow formation of the antibody-Amyloid-antibody-complex. After incubation and appropriate wash steps, a Streptavidine-Peroxidase-Conjugate was added, followed 30 minutes later by an addition of Quanta Blu fluorogenic peroxidase substrate according to the manufacturer's instructions (Pierce Corp., Rockford, Ill.).
# as §6
# as §4, with “3b,” for “3c,”, “IC50. The values reported in Table 3b are averaged IC50 values.” for “IC50.”
# [5] = Table 3a, 18 hours, XLfit, top/bottom fixed to 100 and 0, hill slope 1
# [6] = Table 3b, non-linear regression of % of control, averaged IC50 values
# [7] = Homo sapiens, Table 3b, non-linear regression of % of control, averaged IC50 values
SMILES,IC50 [1] [nM],IC50 [2] [nM],"IC50 [3, 6] [nM]","IC50 [4, 6] [nM]",further results
COc1cc(Nc2cccc3c2nc(C(C)c2ccc(Cl)cc2)n3C)ccc1-n1cnc(C)n1 (racemic) [Compound 122],> 10000,372,–,–,–
COc1cc(-c2nc3c(Nc4ccc(-n5cncn5)c(F)c4)cccc3n2C)ccc1Cl [Compound 83],–,–,45,> 3000,"IC50 [3, 5]: 47 nM; IC50 [4, 5]: > 3000 nM"
COc1cc(Nc2cccc3c2nc(-c2cccc(OC)c2Cl)n3C)ccc1-n1cnc(C)n1 [Compound 84],–,–,141,> 3000,"IC50 [3, 5]: 141 nM; IC50 [4, 5]: > 3000 nM"
COc1cc(Nc2cccc3c2nc(COc2ccccc2)n3C)ccc1-n1ncnc1C [Compound 99],–,–,427,> 10000,"IC50 [3, 5]: 436 nM; IC50 [4, 5]: > 3000 nM"
Cc1cc2c(nc(-c3ccc(F)cc3)n2C)c(Nc2ccc(-n3ncnc3C)c(F)c2)n1 [Compound 100],–,–,661,> 10000,"IC50 [3, 5]: 653 nM; IC50 [4, 5]: > 3000 nM"
C=C(C)c1cc(Nc2ccc(-n3cnc(C)n3)c(OC)c2)c2nc(-c3ccc(F)cc3)n(C)c2n1 [Compound 109],–,–,–,–,"IC50 [3, 7]: 32 nM; IC50 [4, 7]: > 3000 nM"
Cc1cn(-c2ccc(Nc3cc(C)nc4c3nc(-c3ccc(F)cc3)n4C)cc2F)cn1 [Compound 112],–,–,–,–,IC50 ([1]; Homo sapiens): > 10000 nM; IC50 ([2]; Homo sapiens): 19 nM
COc1cc(Nc2cc(C)nc3c2nc(-c2ccc(F)cc2)n3C)ccc1-n1cnc(C)n1 [Compound 113],–,–,–,–,IC50 ([1]; Homo sapiens): > 10000 nM; IC50 ([2]; Homo sapiens): 35 nM
COc1cc(Nc2cccc3c2nc(-c2ccc(F)cc2)n3C)ccc1-n1cnc(CO)c1 [Compound 118],–,–,69,> 3000,–
COCc1cn(-c2ccc(Nc3cccc4c3nc(-c3ccc(F)cc3)n4C)cc2OC)cn1 [Compound 119],–,–,–,–,IC50 ([1]; Homo sapiens): > 10000 nM; IC50 ([2]; Homo sapiens): 65 nM
COc1cc(Nc2cccc3c2nc(C2(c4ccc(Cl)cc4)CC2)n3C)ccc1-n1cnc(C)n1 [Compound 123],> 10000,145,–,–,–
Cc1cn(-c2ccc(Nc3cccc4c3nc(-c3ccc(=O)n(C)c3)n4C)cc2F)cn1 [Compound 124],> 10000,3890,–,–,–
COc1cc(Nc2cccc3c2nc(-c2cccc(Cl)c2)n3C(C)C)ccc1-n1cnc(C)n1 [Compound 126],> 10000,19,–,–,–
CCn1c(-c2cc(F)ccc2F)nc2c(Nc3ccc(-n4cnc(C)n4)c(OC)c3)cc(F)cc21 [Compound 127],–,–,56,> 3000,–
COc1cc(Nc2cc(F)cc3c2nc(-c2ccccc2Cl)n3C)ccc1-n1cnc(C)n1 [Compound 128],–,–,11,> 3000,–
COc1nc(Nc2cccc3c2nc(-c2cc(F)cc(C(F)(F)F)c2)n3C)ccc1-n1cnc(C)c1 [Compound 132],4570,5,–,–,–
COc1nc(Nc2cccc3c2nc(-c2ccc(F)c(Br)c2)n3C)ccc1-n1cnc(C)c1 [Compound 133],–,–,–,–,IC50 ([1]; Homo sapiens): > 10000 nM; IC50 ([2]; Homo sapiens): 9 nM
COc1ccc(-c2nc3c(Nc4ccc(-n5cnc(C)c5)c(F)c4)nc(C)cc3n2C)c(F)c1 [Compound 144],> 10000,145,–,–,–
COc1cc(Nc2nccc3c2nc(-c2ccccc2Cl)n3C)ccc1-n1cnc(C)n1 [Compound 145],–,–,209,> 3000,–
COc1nc(Nc2cccc3c2nc(-c2ccc(=O)n(C)c2)n3C)ccc1-n1cnc(C)c1 [Compound 146],> 10000,347,–,–,–
COc1cc(Nc2nc(C)cc3c2nc(-c2ccccc2Cl)n3C)ccc1-n1cnc(C)n1 [Compound 147],7940,44,–,–,–
COc1cc(Nc2nc(Cl)cc3c2nc(-c2ccc(F)cc2)n3C)ccc1-n1cnc(C)n1 [Compound 156],–,–,58,> 3000,–

# More lines, main results first:
IC50 [1] [nM],IC50 [2] [nM],"IC50 [3, 6] [nM]","IC50 [4, 6] [nM]",SMILES,further results
–,–,21,> 1000,COc1cc(Nc2cccc3c2nc(Cc2ccc(F)cc2)n3C)ccc1-n1cnc(C)c1 [Compound 81],"IC50 [3, 5]: 21 nM; IC50 [4, 5]: > 1000 nM"
–,–,72,> 3000,Cc1ncnn1-c1ccc(Nc2cccc3c2nc(-c2ccc(F)cc2)n3C(C)C)cc1 [Compound 88],"IC50 [3, 5]: 58 nM; IC50 [4, 5]: > 3000 nM"
–,–,39,> 5000,COc1cc(Nc2nccc3[nH]c(-c4ccc(F)cc4)nc23)ccc1-n1cnc(C)c1 [Compound 90],"IC50 [3, 5]: 39 nM; IC50 [4, 5]: > 1000 nM"
–,–,331,> 10000,COc1cc(Nc2nccc3c2nc(-c2ccc(F)cc2F)n3C)ccc1-n1cnc(C)n1 [Compound 98],"IC50 [3, 5]: 357 nM; IC50 [4, 5]: > 3000 nM"
–,–,129,2500,COc1cc(Nc2cccc3c2nc(CC(C)C)n3CC(F)(F)F)ccc1-n1cnc(C)n1 [Compound 105],"IC50 [3, 5]: 129 nM; IC50 [4, 5]: 2800 nM"
> 10000,26,–,–,Cc1cn(-c2ccc(Nc3cc(F)cc4c3nc(-c3ccc(F)cc3)n4C(C)C)cc2F)cn1 [Compound 125],–
6920,5,–,–,COc1cc(-c2nc3c(Nc4ccc(-n5cnc(C)c5)c(OC)n4)cccc3n2C)ccc1Cl [Compound 134],–
> 10000,10,–,–,COc1cc(-c2nc3c(Nc4ccc(-n5cnc(C)n5)c(OC)c4)nc(C)cc3n2C)ccc1Cl [Compound 135],–
> 10000,126,–,–,COc1ccccc1-c1nc2c(Nc3ccc(-n4cnc(C)c4)c(F)c3)nc(C)cc2n1C [Compound 138],–
> 10000,35,–,–,Cc1cn(-c2ccc(Nc3nc(C)cc4c3nc(-c3ccccc3Cl)n4C)cc2F)cn1 [Compound 139],–
> 10000,4,–,–,COc1cc(-c2nc3c(Nc4ccc(-n5cnc(C)c5)c(OC)n4)cc(F)cc3n2C)ccc1Cl [Compound 140],–
> 10000,550,–,–,Cc1cn(-c2ccc(Nc3nc(C)cc4c3nc(-c3cccnc3)n4C)cc2F)cn1 [Compound 143],–
